Patent publication US9453021B2, “Pyrimidodiazepinone compound” (Kyowa Hakko Kirin Co., Ltd., priority 2011, dated 2016)

How the values were obtained:
[1] = tested on: Streptozotocin-induced diabetic pain model (diabetic rats); assay: Pain relieving effect in streptozotocin-induced diabetic pain model; type: in vivo, rat; settings: 1 mg/kg orally; for Relief Rate: pain threshold by von Frey filaments after 1 hour, STZ diabetic rats; for inhibition rate (in words): STZ-induced diabetic pain model
Description: Streptozotocin (STZ)-administered rats are widely used as an insulin-dependent diabetes model. In this model, decreased pain thresholds in response to mechanical stimulation are observed as in diabetic neuropathy patients [British Journal of Pharmacology, 1997, Vol. 122, p. 1478-1482].
(1) Preparation of STZ-Induced Diabetes Model
A STZ solution was prepared as a 30 mg/mL solution by being dissolved in a 0.05 mol/L citric acid aqueous solution (pH 4 to 4.5). The STZ solution (30 mg/mL) was intraperitoneally administered in a 2 mL/kg volume to rats (60 mg/kg). Rats showing 250 mg/dL or higher blood glucose levels after 1 week from the STZ administration were obtained as diabetic rats.
(2) Measurement of Pain Relieving Effect
The evaluation of Pain was performed with von Frey filaments [product name: Touch Test Sensory Evaluator, Model Number Model 58011, Muromachi Kikai Co., Ltd.], and the results were calculated as pain thresholds. Specifically, the above diabetic rats were stimulated by the pressure applied to the underside of the feet with von Frey filaments of varying stimulus strengths, and the stimulus strength at which the […] withdrew their feet was determined. From the result, a 50% pain threshold (paw withdrawal threshold)(g) was calculated by using the Dixon's up and down method [Annual Review of Pharmacology and Toxicology, 1980, Vol. 20, p. 441-462].
Rats with a 50% pain threshold of less than 4 g were used for the evaluation of the test compounds. The test compounds were each suspended in a 0.5% methyl cellulose aqueous solution, and orally administered in a 5 mL/kg volume. After 1 hour, the pain threshold was measured using von Frey filaments. The pain relief rate of the test compound was calculated by using the following equation.

α2δ protein = α2δ protein (Rattus norvegicus, UniProt P54290); assay: α2δ protein binding experiment ([3H]-gabapentin binding inhibition); settings: 0.1 μmol/L test compound; [3H]-gabapentin 20 nmol/L; rat cerebral cortex membrane fraction; read-out: inhibitory activity
α2δ protein, sequence (P54290 25-944 limits assumed): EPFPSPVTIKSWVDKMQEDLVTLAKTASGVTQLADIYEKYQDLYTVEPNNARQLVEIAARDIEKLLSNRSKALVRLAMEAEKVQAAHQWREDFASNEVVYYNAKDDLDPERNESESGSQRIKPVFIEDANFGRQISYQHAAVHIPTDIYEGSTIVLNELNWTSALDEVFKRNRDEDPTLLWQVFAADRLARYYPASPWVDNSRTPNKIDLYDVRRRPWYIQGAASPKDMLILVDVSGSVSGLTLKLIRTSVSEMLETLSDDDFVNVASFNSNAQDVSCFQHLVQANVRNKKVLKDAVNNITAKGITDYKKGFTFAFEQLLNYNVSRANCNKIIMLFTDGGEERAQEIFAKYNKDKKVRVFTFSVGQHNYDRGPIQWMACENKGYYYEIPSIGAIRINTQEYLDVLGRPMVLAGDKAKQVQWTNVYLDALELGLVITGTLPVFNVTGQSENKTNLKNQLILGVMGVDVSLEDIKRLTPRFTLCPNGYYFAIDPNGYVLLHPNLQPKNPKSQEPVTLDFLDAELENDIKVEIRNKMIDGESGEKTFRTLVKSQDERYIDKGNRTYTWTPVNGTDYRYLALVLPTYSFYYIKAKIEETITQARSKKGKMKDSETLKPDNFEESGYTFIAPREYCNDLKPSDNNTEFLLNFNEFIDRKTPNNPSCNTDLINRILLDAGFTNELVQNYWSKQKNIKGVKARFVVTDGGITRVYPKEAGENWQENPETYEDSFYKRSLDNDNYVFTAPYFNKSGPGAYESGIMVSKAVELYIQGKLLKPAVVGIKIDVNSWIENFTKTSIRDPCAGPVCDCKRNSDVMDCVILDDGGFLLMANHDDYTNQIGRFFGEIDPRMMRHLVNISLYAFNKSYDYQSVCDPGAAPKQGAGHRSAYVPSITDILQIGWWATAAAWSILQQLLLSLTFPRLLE
α2δ protein, sequence (P54290 945-1091 limits assumed): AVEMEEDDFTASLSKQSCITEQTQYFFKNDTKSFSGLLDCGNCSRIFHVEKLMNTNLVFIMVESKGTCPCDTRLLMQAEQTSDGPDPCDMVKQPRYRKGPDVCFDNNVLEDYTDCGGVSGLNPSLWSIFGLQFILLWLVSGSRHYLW
Description: Experiment was conducted according to the methods described in European Journal of Pharmacology, 1993, 244, p. 293-301, using the report of Woodruff G N et al. as a reference (Journal of Biological Chemistry, 1996, 271, p. 5768-5776).
(1) Preparation of Membrane Fraction from Rat Cerebral Cortex
A male SD rat was purchased at the age of 6 weeks, and kept for at least 7 days prior to experiment. The cerebral cortex was removed, and gently washed with Tris-sucrose buffer A (containing 0.32 mol/L sucrose, 5 mmol/L tris-acetate, 1 mmol/L ethylenediaminetetraacetic acid (EDTA), 1 mmol/L ethylene glycol tetraacetic acid (EGTA), and a protease inhibitor cocktail tablet, pH 7.4). The cerebral cortex was placed in Tris-sucrose buffer A, and homogenized in 15 strokes (250 rpm) using a teflon homogenizer to obtain a crude extract. The crude extract was centrifuged at 4° C. for 10 minutes at 2,000 rpm, and the supernatant was collected. After adding Tris-sucrose buffer A to the resulting precipitate, the same homogenization and centrifugation procedures as above were performed, and the resulting supernatant was mixed with the previously obtained supernatant to obtain a total collected supernatant. The total collected supernatant was centrifuged at 4° C. for 30 minutes at 20,000 rpm, and the supernatant (cytosolic fraction) was removed. Tris-acetate buffer A (containing 5 mmol/L tris-acetate, 1 mmol/L EDTA, 1 mmol/L EGTA, and a protease inhibitor cocktail tablet, pH 8.0) was added to the remaining precipitate (cell membrane fraction), and the mixture was stirred for 1 hour. The stirred extract was centrifuged at 4° C. for 30 minutes at 26,500 rpm, and Tris-sucrose buffer B (containing 1.2 mol/L sucrose, 5 mmol/L tris-acetate, pH 7.4) was added to the resulting precipitate. The mixture was dispensed in centrifuge tubes in 15-mL portions, and 9 mL of Tris-sucrose buffer C (containing 0.9 mol/L sucrose, 5 mmol/L tris-acetate, pH 7.4) was gently layered on the mixture in each centrifuge tube without disrupting the interface. The centrifuge tubes were centrifuged at 4° C. for 90 minutes at 43,000 rpm, and the membrane fraction at the interface of the Tris-sucrose buffer B and the Tris-sucrose buffer C was collected with a Pasteur pipette. After adding Tris-acetate buffer B (5 mmol/L tris-acetate, pH 7.4) to the collected membrane fraction, the mixture was centrifuged at 4° C. for 20 minutes at 26,500 rpm. The resulting precipitate was resuspended in Tris-acetate buffer B to obtain a cerebral cortex membrane fraction, and the cerebral cortex membrane fraction was stored at −80° C. until use in the binding experiment. For the binding experiment, the stored suspension was centrifuged at 4° C. for 30 minutes at 32,000 rpm, and Binding buffer [a 0.1 w/v % bovine serum albumin (BSA)-containing 10 mmol/L 4-(2-hydroxyethyl)-1-piperazineethanesulfonic acid (HEPES) solution adjusted to pH 7.4 with sodium hydroxide] for the binding experiment was added to the obtained precipitate, and resuspended with a syringe equipped with an injection needle to adjust to the desired concentration.
(2) [^3H]-Gabapentin Binding Inhibition Experiment
A test compound (20 μL) diluted to 5 times of the final concentration with Binding buffer, [^3H]-gabapentin diluted to 100 nmol/L with binding buffer [20 μL (final concentration 20 nmol/L)], and the rat cerebral cortex membrane fraction (60 μL; 12 μg membrane fraction) obtained in the (1) above were added to each well of a 96-well round-bottom plate. After being sufficiently mixed, these were allowed to react at room temperature for 1 hour. After the reaction, the reaction sample was suction filtered using a filter plate with 50 μL/well of 0.3 vol % polyethyleneimine added, and a cell harvester. The filter was then washed with ice-cooled Wash buffer (100 mmol/L NaCl, 0.1 w/v % BSA). […]

Question: For CNc1ncc2c(n1)N1CCC[C@H]1CN(c1cccc3c1C(=O)C(=O)N3C)C2=O [Compound 1-146, (S)-9-Methylamino-5-(1-methylindoline-2,3-dion-4-yl)-1,2,3,3a,4,5-hexahydro-5,8,10,10b-tetraazabenzo[e]azulen-6-one, reference compound], which “Relief Rate” value [1] is on record?
Answer: 6%

Question: With CNc1ncc2c(n1)N1CCC[C@H]1CN(c1cccn3c(=O)c(C)c(C)nc13)C2=O [Compound 8, (S)-6-(2,3-Dimethyl-4-oxo-4H-pyrido[1,2-a]pyrimidin-9-yl)-2-methylamino-6,7,7a,8,9,10-hexahydro-5H-pyrimido[5,4-f]pyrrolo[1,2-a][1,4]diazepin-5-one] as the compound, how does the “Relief Rate” value [1] read?
Answer: 85%

Question: What about the “inhibition rate (in words)” value [1] of the same compound?
Answer: good inhibition rate

Question: CNc1ncc2c(n1)N1CCC[C@H]1CN(c1cccc3c(=O)n(C)cnc13)C2=O [Compound 10, (S)-6-(3-Methyl-4-oxo-3,4-dihydroquinazolin-8-yl)-2-methylamino-6,7,7a,8,9,10-hexahydro-5H-pyrimido[5,4-f]pyrrolo[1,2-a][1,4]diazepin-5-one] was tested. Which “Relief Rate” value [1] did it give?
Answer: 91%

Question: What about the “inhibition rate (in words)” value [1] of the same compound?
Answer: good inhibition rate

Question: How did the inhibition at 0.1 µM (α2δ protein) turn out when CCNc1ncc2c(n1)N1CCC[C@H]1CN(c1cccc3c1CCC(=O)N3C)C2=O [Compound 83, (S)-2-Ethylamino-6-(1-methyl-2-oxo-1,2,3,4-tetrahydroquinolin-5-yl)-6,7,7a,8,9,10-hexahydro-5H-pyrimido[5,4-f]pyrrolo[1,2-a][1,4]diazepin-5-one] was run?
Answer: ≥ 50%

Question: Which inhibition at 0.1 µM (α2δ protein) does the source give for Cn1cnc2cccc(N3C[C@@H]4CCCN4c4nc(N)ncc4C3=O)c2c1=O [Compound 85, (S)-2-Amino-6-(3-methyl-4-oxo-3,4-dihydroquinazolin-5-yl)-6,7,7a,8,9,10-hexahydro-5H-pyrimido[5,4-f]pyrrolo[1,2-a][1,4]diazepin-5-one] here?
Answer: ≥ 50%

Question: How did the inhibition at 0.1 µM (α2δ protein) turn out when CCNc1ncc2c(n1)N1CCC[C@H]1CN(c1csc3c(=O)n(C)ccc13)C2=O [Compound 90, (S)-3-(2-Ethylamino-5-oxo-7a,8,9,10-tetrahydro-5H-pyrimido[5,4-f]pyrrolo[1,2-a][1,4]diazepin-6(7H)-yl)-6-methylthieno[2,3-c]pyridin-7(6H)-one] was run?
Answer: ≥ 50%

Question: How did the inhibition at 0.1 µM (α2δ protein) turn out when CNc1ncc2c(n1)N1CCC[C@H]1CN(c1csc3c(=O)n(C)ccc13)C2=O [Compound 91, (S)-6-Methyl-3-(2-methylamino-5-oxo-7a,8,9,10-tetrahydro-5H-pyrimido[5,4-f]pyrrolo[1,2-a][1,4]diazepin-6(7H)-yl)thieno[2,3-c]pyridin-7(6H)-one] was run?
Answer: ≥ 50%

Question: Which inhibition at 0.1 µM (α2δ protein) does the source give for CCNc1ncc2c(n1)N1CCC[C@H]1CN(c1cn(C)c3c(=O)n(C)ccc13)C2=O [Compound 93, (S)-6-(1,6-Dimethyl-7-oxo-6,7-dihydro-1H-pyrrolo[2,3-c]pyridin-3-yl)-2-ethylamino-6,7,7a,8,9,10-hexahydro-5H-pyrimido[5,4-f]pyrrolo[1,2-a][1,4]diazepin-5-one] here?
Answer: ≥ 50%

Question: For CCNc1ncc2c(n1)N1C[C@H](F)C[C@H]1CN(c1cccc3c(=O)n(C)cnc13)C2=O [Compound 115, (7aS,9R)-2-Ethylamino-9-fluoro-6-(3-methyl-4-oxo-3,4-dihydroquinazolin-8-yl)-6,7,7a,8,9,10-hexahydro-5H-pyrimido[5,4-f]pyrrolo[1,2-a][1,4]diazepin-5-one], which inhibition at 0.1 µM (α2δ protein) is on record?
Answer: ≥ 50%

Question: For CCNc1ncc2c(n1)N1C[C@@H](OC)C[C@H]1CN(c1cccc3c(=O)n(C)cnc13)C2=O [Compound 117, (7aS,9S)-2-Ethylamino-9-methoxy-6-(3-methyl-4-oxo-3,4-dihydroquinazolin-8-yl)-6,7,7a,8,9,10-hexahydro-5H-pyrimido[5,4-f]pyrrolo[1,2-a][1,4]diazepin-5-one], which inhibition at 0.1 µM (α2δ protein) is on record?
Answer: ≥ 50%

Question: For CCNc1ncc2c(n1)N1C[C@H](O)C[C@H]1CN(c1cccc3c(=O)n(C)cnc13)C2=O [Compound 118, (7aS,9R)-2-Ethylamino-9-hydroxy-6-(3-methyl-4-oxo-3,4-dihydroquinazolin-8-yl)-6,7,7a,8,9,10-hexahydro-5H-pyrimido[5,4-f]pyrrolo[1,2-a][1,4]diazepin-5-one], which inhibition at 0.1 µM (α2δ protein) is on record?
Answer: ≥ 50%
